Source: the NIST ThermoML archive (doi:10.1016/j.jct.2011.04.013)
Numbers after ± are expanded uncertainties.

What was measured:
[1] = Molar enthalpy of transition or fusion; conditions: Crystal; DSC
[2] = molar heat capacity at constant pressure; conditions: 462.02 K; 101.33 kPa; Crystal; Large sample (1 g) DSC
[3] = Solid-liquid equilibrium temperature; conditions: 101.33 kPa; Crystal; DTA

Compound | Molar enthalpy of transition or fusion [1] [kcal/mol] | molar heat capacity at constant pressure [2] [J/K/mol] | Solid-liquid equilibrium temperature [3] [K]
Cc1cc(=O)oc2cc(O)ccc12 [7-hydroxy-4-methyl-2H-chromen-2-one] | 7.51 ± 0.165 | 8.971 ± 0.18 | 462.02 ± 0.24
CCOc1ccc2c(C)cc(=O)oc2c1 [7-ethoxy-4-methyl-2H-chromen-2-one] | 6.17 ± 0.174 |  | 387.52 ± 0.2
COc1ccc2oc(=O)cc(C)c2c1 [6-methoxy-4-methylcoumarin] | 7.96 ± 0.172 |  | 436.13 ± 0.22
